# In patent publication US8609173B2, “Compositions comprising sweetness enhancers and methods of making them” (Senomyx Inc., priority 2008, dated 2013):
# Columns and labels:
# External panelists [1] = assay: Line scale sensory test, Example 6, fructose as sweetener, pH 7.1; type: in vivo, Human; set-up: Average Sweetness / Average Bitterness: scale not given here
# Experimental: Sensory evaluations were performed using fructose as the sweetener and 3-(4-amino-2,2-dioxide-1H-benzo[c][1,2,6]thiadiazin-5-yloxy)-2′,2′-dimethyl-N-propylpropanamide as the sweetness enhancer, using methods similar to those using sucrose, above. […]
# Panelists = assay: Paired comparison taste test, strawberry yogurt; type: in vivo, Human
# Experimental: Two strawberry yogurt compositions were prepared and then mixed with plain, nonfat yogurt. One strawberry fruit composition was sweetened with a mixture of sucrose and fructose, and a second strawberry fruit composition was sweetened with ⅓ less sucrose and 3 ppm of 3-(4-amino-2,2-dioxide-1H-benzo[c][1,2,6]thiadiazin-5-yloxy)-2′,2′-dimethyl-N-propylpropanamide. The compositions of the two fruit compositions are as follows:
# Panelists evaluated two yogurt compositions in a paired comparison taste test procedure and were instructed to select the sweeter of the two samples. They perform a total of three paired comparison tests each containing the following samples: Strawberry Yogurt with 100% Sucrose vs. Strawberry Yogurt with 66.6% Sucrose+3 ppm (8.47 μM) 3-(4-amino-2,2-dioxide-1H-benzo[c][1,2,6]thiadiazin-5-yloxy)-2′,2′-dimethyl-N-propylpropanamide.
# Strawberry Yogurt Preparation: 1000 g batches of finished strawberry yogurt was made by adding 16% (by weight) strawberry fruit prep to 84% (by weight) plain nonfat yogurt and mixing with a wire whip until homogenous, a minimum of five minutes. The Compound A was dissolved into a 0.10% concentration level in propylene glycol and then added to the strawberry yogurt and mixed with a wire whip until homogenous, about 5 minutes.
# [2] = Solubility in buffers and food grade solvents (Table 14); type: physicochemical
# Experimental: Solubility of 3-(4-amino-2,2-dioxide-1H-benzo[c][1,2,6]thiadiazin-5-yloxy)-2′,2′-dimethyl-N-propylpropanamide
# Various solutions of 3-(4-amino-2,2-dioxide-1H-benzo[c][1,2,6]thiadiazin-5-yloxy)-2′,2′-dimethyl-N-propylpropanamide 3-(4-amino-2,2-dioxide-1H-benzo[c][1,2,6]thiadiazin-5-yloxy)-2′,2′-dimethyl-N-propylpropanamide were prepared as indicated below.
# External panelists [3] = assay: Line scale (15-point sucrose equivalence) sensory test, Example 3A/3C, sucrose or LSB, pH 7.1; type: in vivo, Human; set-up: key to Average Sweetness / Average Bitterness: 15-point scale: 0 = 0% sucrose to 15 = 15% sucrose; references = 5
# Experimental: (§1) Several types of sensory tests were used to determine the efficacy of 5-(neopentyloxy)-1H-benzo[c][1,2,6]thiadiazin-4-amino-2,2-dioxide in enhancing sweetness of sucrose. Two types of tests were conducted: • 1) Sensory scaling tests were performed using a 15-point percent sucrose equivalence scale for sweetness in order to evaluate sweetness enhancement 5-(neopentyloxy)-1H-benzo[c][1,2,6]thiadiazin-4-amino-2,2-dioxide in sucrose, or in fructose. • 2) Paired comparison tests (2-alternative forced choice difference tests) were used to determine sweetness equivalence for solutions of sucrose vs. 5-(neopentyloxy)-1H-benzo[c][1,2,6]thiadiazin-4-amino-2,2-dioxide or buffer vs. 5-(neopentyloxy)-1H-benzo[c][1,2,6]thiadiazin-4-amino-2,2-dioxide. Stimuli:
# Tests were performed with sucrose or fructose. Sweetener was evaluated with and/or without 5-(neopentyloxy)-1H-benzo[c][1,2,6]thiadiazin-4-amino-2,2-dioxide at the appropriate concentration(s).
# 5-(Neopentyloxy)-1H-benzo[c][1,2,6]thiadiazin-4-amino-2,2-dioxide was prepared as a concentrated stock solution in ethanol to ensure dissolution of the compound. Therefore, all taste solutions contained 0.1% ethanol final concentration. Samples without compound also contained 0.1% ethanol. Low sodium phosphate buffer consists of 0.3 mM KCl, 0.5 mM Na2HPO4, and 0.175 mM KH2PO4.
# In scaling test situations, the samples were rated on a 15-point scale for sweetness, ranging from 0=0% sucrose to 15=15% sucrose. To evaluate attributes other than sweetness, references are used for training and are prepared according to the table below. Note that each reference was given a score of 5 on the 15-point scale.
# External panelists were used for the tests. The exact number of panelists is reported with test results. Subjects were instructed not to eat or drink anything (except water) for at least 1 hour prior to the test.
# Panelists rinsed their mouths with water prior to starting any test. Samples were presented to panelists in a randomized, counterbalanced order. Panelists rinsed with water and had up to a 1 minute delay to clear the mouth of any tastes after each evaluation. Two replicates of each test were performed, unless otherwise noted.
# External panelists [4] = assay: Paired comparison test (2-alternative forced choice), Example 3B, sucrose; type: in vivo, Human; settings: 9% sucrose chosen, vs 6% Sucrose + 10 ppm (35.29 μM) compound; n = 28
# Experimental: as §1
# Panelists performed 2 directional paired comparison tests to determine which sample was sweeter. The test compared the sweetness intensity of 9% sucrose to that of 6% sucrose+10 ppm (35.29 μM) 5-(neopentyloxy)-1H-benzo[c][…]thiadiazin-4-amino-2,2-dioxide. Panelists were also to comment on the difficulty of the test and if any off tastes were perceived. Samples were completely randomized.
smiles,measurement,setting,value
"CCCNC(=O)C(C)(C)COc1cccc2c1C(N)=NS(=O)(=O)N2 [3-(4-amino-2,2-dioxide-1H-benzo[c][1,2,6]thiadiazin-5-yloxy)-2′,2′-dimethyl-N-propylpropanamide]",off tastes,"External panelists [1]; 25 μM compound in 6% fructose, LSB, pH 7.1",no significant off tastes
same,Average Sweetness,"External panelists [1]; 30 μM (10.6 ppm) compound, no fructose, pH 7.1, n = 30",0.6
same,off tastes,External panelists [1]; 30.0 μM and 40 μM compound,no significant off tastes
same,Average Bitterness,"External panelists [1]; 30 μM compound, no fructose, n = 30",0.4
same,Sweetness vs fructose solutions (conclusion),"External panelists [1]; 30.0 μM compound, p>0.10",not significantly different in sweetness compared to 0% and 2% fructose respectively
same,Average Sweetness,"External panelists [1]; 40 μM (14.2 ppm) compound, no fructose, pH 7.1, n = 30",1.1
same,Average Bitterness,"External panelists [1]; 40 μM compound, no fructose, n = 30",0.6
same,Sweetness vs fructose solutions (conclusion),"External panelists [1]; 40 μM compound, p>0.10",not significantly different in sweetness compared to 0% and 2% fructose respectively
same,off tastes,"External panelists [1]; 100 μM compound in 6% fructose, LSB, pH 7.1",no significant off tastes
same,Average Sweetness,"External panelists [1]; 6% Fructose + 25 μM (8.9 ppm) compound, pH 7.1, n = 26",7.8
same,Average Bitterness,"External panelists [1]; 6% Fructose + 25 μM compound, n = 26",0.2
same,Average Sweetness,"External panelists [1]; 6% Fructose + 100 μM (35.4 ppm) compound, pH 7.1, n = 14",9.2
same,Average Bitterness,"External panelists [1]; 6% Fructose + 100 μM compound, n = 14",0.3
same,Sweetness vs fructose solutions (conclusion),"External panelists [1]; 6% fructose + 25 μM compound, p>0.05",significantly sweeter than 6% fructose
same,Sweetness vs fructose solutions (conclusion),"External panelists [1]; 6% fructose + 100 μM compound, p>0.10",not significantly different than 8% or 9% fructose
same,"Sample selected as sweeter by panelists, Total","Panelists; Strawberry Yogurt with 4.5% Sucrose + 3 ppm (8.47 μM) compound chosen, vs 6.7% Sucrose, n = 72",33
same,Sweetness comparison (conclusion),"Panelists; Strawberry Yogurt with 66.6% Sucrose + 3 ppm (8.47 μM) compound vs 100% Sucrose, p>0.10",not significantly different in sweetness
same,Solubility (ppm),"[2]; Citric Acid Buffer, pH 2.8",50 ppm
same,Solubility (ppm),"[2]; Citric Acid Buffer, pH 4.0",50 ppm
same,Solubility (ppm),[2]; Ethanol,3757 ppm
same,Solubility (ppm),[2]; Glycerol,2800 ppm
same,Solubility (ppm),"[2]; Phosphate Buffer, pH 7.1",602 ppm
same,Solubility (ppm),[2]; Propylene Glycol (PG),6096 ppm
same,Solubility (ppm),[2]; Triacetin,567 ppm
same,solubility,"[2]; aqueous buffer, Citric Acid Buffer, pH 4.0",140 µM
same,aqueous solubility (conclusion),[2]; aqueous buffers pH 2.8-7.1,"pH dependent, and lower solubility was found at low pH"
same,solubility,"[2]; citric acid buffer, pH 2.8, aqueous buffer",140 µM
same,solubility,"[2]; ethanol, organic solvent or mixture",10600 µM
same,solubility,"[2]; glycerol, organic solvent or mixture",7900 µM
same,solubility,"[2]; organic solvent or mixture, Propylene Glycol (PG)",17200 µM
same,solubility,"[2]; phosphate buffer, pH 7.1, aqueous buffer",1700 µM
same,solubility,"[2]; triacetin, organic solvent or mixture",1600 µM
"OC[C@H]1O[C@@](CO)(O[C@H]2O[C@H](CO)[C@@H](O)[C@H](O)[C@H]2O)[C@@H](O)[C@@H]1O [Sucrose, sucrose]",Average Sweetness,"External panelists [3]; 2% Sucrose, Table 10, n = 14",2.1
same,Average Bitterness,"External panelists [3]; 2% Sucrose, Table 12, n = 14",0.1
same,Average Sweetness,"External panelists [3]; 4% Sucrose, Table 10, n = 14",3.8
same,Average Bitterness,"External panelists [3]; 4% Sucrose, Table 12, n = 14",0.0
same,Average Sweetness,"External panelists [3]; 6% Sucrose, Table 10, n = 14",6.0
same,Average Sweetness,"External panelists [3]; 6% Sucrose, Table 11, n = 14",7.3
same,Average Bitterness,"External panelists [3]; 6% Sucrose, Table 12, n = 14",0.4
same,Average Bitterness,"External panelists [3]; 6% Sucrose, Table 13, n = 14",0.4
same,Average Bitterness,"External panelists [3]; 6% Sucrose, pH 7.1, n = 32",0.3
same,Average Sweetness,"External panelists [3]; 6% Sucrose, pH 7.1, n = 32",6.5
same,Average Sweetness,"External panelists [3]; 8% Sucrose, Table 11, n = 14",8.6
same,Average Bitterness,"External panelists [3]; 8% Sucrose, Table 13, n = 14",0.4
same,Average Bitterness,"External panelists [3]; 8% Sucrose, pH 7.1, n = 32",0.3
same,Average Sweetness,"External panelists [3]; 8% Sucrose, pH 7.1, n = 32",7.9
same,Average Sweetness,"External panelists [3]; 9% Sucrose, Table 11, n = 14",9.4
same,Average Bitterness,"External panelists [3]; 9% Sucrose, Table 13, n = 14",0.6
same,Average Bitterness,"External panelists [3]; 9% Sucrose, pH 7.1, n = 32",0.2
same,Average Sweetness,"External panelists [3]; 9% Sucrose, pH 7.1, n = 32",8.9
same,Average Sweetness,"External panelists [3]; 10% Sucrose, Table 11, n = 14",9.6
same,Average Bitterness,"External panelists [3]; 10% Sucrose, Table 13, n = 14",0.2
same,Average Bitterness,"External panelists [3]; 10% Sucrose, pH 7.1, n = 32",0.3
same,Average Sweetness,"External panelists [3]; 10% Sucrose, pH 7.1, n = 32",9.3
same,"Sample selected as more sweet by panelists, Total",External panelists [4],9
